US9624229B2, “Pyrimidine-2-amine compounds and their use as inhibitors of JAK kinases” (Rigel Pharmaceuticals, Inc., priority 2008, dated 2017)

The molecules below were run against Ba/F3 V617F cells (Homo sapiens, UniProt O60674, V617F, cells depend on it) (assay: Proliferation assay (Cell Titer-Glo, 72 h) utilizing Ba/F3 V617F cells). Conditions: Ba/F3 V617F cells, proliferation, level of activity given as class symbol, read-out: IC50 (the source's name).
Format: cell-based, mouse
Method in brief: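 Ba/F3 V617F cells in RPMI/10% FBS, 1×10^5 cells/mL, exposed in duplicate to 3-fold serial compound dilutions (top 5 mM DMSO stock, diluted 1:250, added as 2× solution in 5% FBS medium) for 72 h at 37 °C. Viability by Cell Titer-Glo luminescence; IC50 reported.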

Sequence of Ba/F3 V617F cells (O60674 whole entry V617F): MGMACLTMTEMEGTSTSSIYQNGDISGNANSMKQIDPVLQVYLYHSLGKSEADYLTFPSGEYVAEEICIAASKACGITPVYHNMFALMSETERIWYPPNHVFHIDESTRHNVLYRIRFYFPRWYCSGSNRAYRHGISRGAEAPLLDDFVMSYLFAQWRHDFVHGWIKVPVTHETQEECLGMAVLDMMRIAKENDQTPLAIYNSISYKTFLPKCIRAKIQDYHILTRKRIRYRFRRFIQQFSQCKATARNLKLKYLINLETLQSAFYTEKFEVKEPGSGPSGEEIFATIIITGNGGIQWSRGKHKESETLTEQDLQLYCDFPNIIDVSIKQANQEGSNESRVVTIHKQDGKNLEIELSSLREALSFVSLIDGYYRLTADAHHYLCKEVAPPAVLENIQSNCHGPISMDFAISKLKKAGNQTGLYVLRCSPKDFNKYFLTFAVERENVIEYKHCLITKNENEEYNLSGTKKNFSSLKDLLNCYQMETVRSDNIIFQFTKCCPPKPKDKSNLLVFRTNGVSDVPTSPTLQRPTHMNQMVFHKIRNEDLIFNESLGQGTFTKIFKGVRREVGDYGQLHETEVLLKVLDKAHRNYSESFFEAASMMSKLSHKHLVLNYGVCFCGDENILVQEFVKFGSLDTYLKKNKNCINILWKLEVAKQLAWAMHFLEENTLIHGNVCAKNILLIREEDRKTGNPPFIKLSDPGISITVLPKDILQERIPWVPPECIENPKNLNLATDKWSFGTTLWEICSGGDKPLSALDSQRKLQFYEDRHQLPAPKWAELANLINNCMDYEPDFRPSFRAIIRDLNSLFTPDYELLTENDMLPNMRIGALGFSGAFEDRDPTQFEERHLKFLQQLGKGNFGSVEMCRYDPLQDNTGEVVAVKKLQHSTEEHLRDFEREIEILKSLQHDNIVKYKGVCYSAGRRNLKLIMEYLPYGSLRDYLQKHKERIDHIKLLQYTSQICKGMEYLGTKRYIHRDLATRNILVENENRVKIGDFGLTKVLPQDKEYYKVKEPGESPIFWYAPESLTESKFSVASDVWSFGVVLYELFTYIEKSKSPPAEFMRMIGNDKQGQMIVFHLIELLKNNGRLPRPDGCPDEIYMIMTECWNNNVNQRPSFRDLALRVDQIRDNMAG

GI50	Structure (SMILES)
< 1 µM	Cc1cc(Nc2nccc(-c3cnc4c(c3)OC(C)(C)C(=O)N4)n2)ccc1N1C[C@@H]2C[C@H]1CN2C1CC1 [compound 247, 4-(2,2-dimethyl-3-oxo-3,4-dihydro-2H-pyrido[3,2-b][1,4]oxazin-7-yl)-N-(3-methyl-4-((1S,4S)-5-cyclopropyl-2,5-diazabicyclo[2.2.1]heptan-2-yl)phenyl)pyrimidin-2-amine]
1 to 10 µM	Cc1cc(Nc2nccc(-c3cnc4[nH]c5c(c4c3)CCCC5)n2)ccc1N1C[C@@H]2C[C@H]1CN2S(C)(=O)=O [compound 268, 4-(6,7,8,9-tetrahydro-5H-pyrido[2,3-b]indol-3-yl)-N-(3-methyl-4-((1S,4S)-5-(methylsulfonyl)-2,5-diazabicyclo[2.2.1]heptan-2-yl)phenyl)pyrimidin-2-amine]
< 1 µM	Cc1cc(Nc2nccc(-c3ccc(N4C[C@H]5C[C@@H]4CO5)nc3)n2)ccc1N1C[C@@H]2C[C@H]1CN2C [compound 265, 4-(6-((1R,4R)-2-oxa-5-azabicyclo[2.2.1]heptan-5-yl)pyridin-3-yl)-N-(3-methyl-4-((1S,4S)-5-methyl-2,5-diazabicyclo[2.2.1]heptan-2-yl)phenyl)pyrimidin-2-amine]
< 1 µM	Cc1cc(Nc2nccc(-c3ccc(N4CCOCC4)nc3)n2)ccc1N1C[C@@H]2C[C@H]1CO2 [compound 194, 4-(6-(morpholin-4-yl)pyridin-3-yl)-N-(3-methyl-4-((1S,4S)-5-oxa-2-azabicyclo[2.2.1]heptan-2-yl)phenyl)pyrimidin-2-amine]
< 1 µM	CN1C[C@@H]2C[C@H]1CN2c1ccc(Nc2nccc(-c3ccc4c(c3)OC(C)(C)C(=O)N4)n2)cc1C#N [compound 271, 4-(2,2-dimethyl-3-oxo-3,4-dihydro-2H-benzo[b][1,4]oxazin-7-yl)-N-(3-cyano-4-((1S,4S)-5-methyl-2,5-diazabicyclo[2.2.1]heptan-2-yl)phenyl)pyrimidin-2-amine]
< 1 µM	Cc1cc(Nc2nccc(-c3ccc(OC4CCOCC4)nc3)n2)ccc1N1CCN2CCC1C2 (stereo not shown) [compound 275, 4-(6-(tetrahydropyran-4-yloxy)pyridin-3-yl)-N-(3-methyl-4-(1,4-diazabicyclo[3.2.1]octan-4-yl)phenyl)pyrimidin-2-amine]
1 to 10 µM	CS(=O)(=O)N1CC2CC(c3ccc(Nc4nccc(-c5ccc(N6CCOCC6)nc5)n4)cc3)C1C2 (stereo not shown) [compound 229, 4-(6-(morpholin-4-yl)pyridin-3-yl)-N-(4-(2-methylsulfonyl-2-azabicyclo[2.2.1]heptan-6-yl)phenyl)pyrimidin-2-amine]
1 to 10 µM	CCC(=O)N1C[C@@H]2C[C@H]1CN2c1ccc(Nc2nccc(-c3ccc(NCCN4CCOCC4)nc3)n2)cc1C [compound 197, 4-(6-(2-(morpholin-4-yl)ethyl)aminopyridin-3-yl)-N-(3-methyl-4-((1S,4S)-5-ethylcarbonyl-2,5-diazabicyclo[2.2.1]heptan-2-yl)phenyl)pyrimidin-2-amine]

Same assay, conditions: Ba/F3 V617F cells, proliferation, level of activity to inhibit JAK2, read-out: IC50 (the source's name)

Structure (SMILES)	GI50
Cc1cc(Nc2nccc(-c3ccc(Cc4ccccc4)nc3)n2)ccc1N1CC2(C)CN(C)CC(C)(C1)C2 [compound 90, 4-(6-(benzyl)pyridin-3-yl)-N-(3-methyl-4-(1,5,7-trimethyl-3,7-diazabicyclo[3.3.1]nonan-3-yl)phenyl)pyrimidin-2-amine]	< 1 µM
CN1C[C@@H]2C[C@H]1CN2c1ccc(Nc2nccc(-c3ccnc(N4CCOCC4)c3F)n2)cc1F [compound 39, 4-(3-fluoro-2-(morpholin-4-yl)pyridin-4-yl)-N-(3-fluoro-4-((1S,4S)-5-methyl-2,5-diazabicyclo[2.2.1]heptan-2-yl)phenyl)pyrimidin-2-amine]	1 to 10 µM
Cc1cc(-c2ccnc(Nc3ccc(N4C[C@@H]5C[C@H]4CN5C)c(F)c3)n2)cnc1N1CCOCC1 [compound 59, 4-(5-methyl-6-(morpholin-4-yl)pyridin-3-yl)-N-(3-fluoro-4-((1S,4S)-5-methyl-2,5-diazabicyclo[2.2.1]heptan-2-yl)phenyl)pyrimidin-2-amine]	< 1 µM
Cc1cc(Nc2nccc(-c3cnc(NC(=O)C4CC4)nc3)n2)ccc1N1C[C@@H]2C[C@H]1CN2C [compound 44, 4-(2-((cyclopropyl)carbonylamino)-pyrimidin-5-yl)-N-(3-methyl-4-((1S,4S)-5-methyl-2,5-diazabicyclo[2.2.1]heptan-2-yl)phenyl)pyrimidin-2-amine]	< 1 µM
Cc1cc(Nc2nccc(-c3ccc4cc[nH]c4c3)n2)ccc1N1C[C@@H]2C[C@H]1CN2C [compound 21, 4-(1H-indol-6-yl)-N-(3-methyl-4-((1S,4S)-5-methyl-2,5-diazabicyclo[2.2.1]heptan-2-yl)phenyl)pyrimidin-2-amine]	< 1 µM
Cc1cc(Nc2ncc(C)c(-c3ccc(N4CCOCC4)nc3)n2)ccc1N1C[C@@H]2C[C@H]1CN2C [compound 67, 5-methyl-4-(6-(morpholin-4-yl)pyridin-3-yl)-N-(3-methyl-4-((1S,4S)-5-methyl-2,5-diazabicyclo[2.2.1]heptan-2-yl)phenyl)pyrimidin-2-amine]	< 1 µM
Cc1cc(Nc2nccc(-c3cnc4c(c3)OC(C)(C)C(=O)N4)n2)ccc1N1C[C@H]2C[C@@H]1CN2C [compound 71, 4-(2,2-dimethyl-3-oxo-3,4-dihydro-2H-pyrido[3,2-b][1,4]oxazin-7-yl)-N-(3-methyl-4-((1R,4R)-5-methyl-2,5-diazabicyclo[2.2.1]heptan-2-yl)phenyl)pyrimidin-2-amine]	< 1 µM
CN1CC2(C)CN(c3ccc(Nc4nccc(-c5cnc6c(c5)OCCN6)n4)cc3F)CC(C)(C1)C2 [compound 89, 4-(3,4-dihydro-2H-pyrido[3,2-b][1,4]oxazin-7-yl)-N-(3-fluoro-4-(1,5,7-trimethyl-3,7-diazabicyclo[3.3.1]nonan-3-yl)phenyl)pyrimidin-2-amine]	1 to 10 µM
Cc1cc(Nc2nccc(-c3ccc(N4CCOCC4)nc3)n2)ccc1N1C[C@H]2C[C@@H]1CN2C [compound 72, 4-(6-(morpholin-4-yl)pyridin-3-yl)-N-(3-methyl-4-((1R,4R)-5-methyl-2,5-diazabicyclo[2.2.1]heptan-2-yl)phenyl)pyrimidin-2-amine]	< 1 µM
Cc1cc(Nc2nccc(-c3cnc4[nH]ccc4c3)n2)ccc1N1C[C@@H]2C[C@H]1CN2CC1CC1 [compound 35, 4-(1H-pyrrolo[2,3-b]pyridin-5-yl)-N-(3-methyl-4-((1S,4S)-5-(cyclopropyl)methyl-2,5-diazabicyclo[2.2.1]heptan-2-yl)phenyl)pyrimidin-2-amine]	< 1 µM
CN1C[C@@H]2C[C@H]1CN2c1ccc(Nc2nccc(-c3cnc4[nH]ccc4c3)n2)cc1F [compound 23, 4-(1H-pyrrolo[2,3-b]pyridin-5-yl)-N-(3-fluoro-4-((1S,4S)-5-methyl-2,5-diazabicyclo[2.2.1]heptan-2-yl)phenyl)pyrimidin-2-amine]	< 1 µM
Cc1cnc(Nc2ccc(N3C[C@@H]4C[C@H]3CN4C)c(F)c2)nc1-c1ccc(N2CCOCC2)nc1 [compound 68, 5-methyl-4-(6-(morpholin-4-yl)pyridin-3-yl)-N-(3-fluoro-4-((1S,4S)-5-methyl-2,5-diazabicyclo[2.2.1]heptan-2-yl)phenyl)pyrimidin-2-amine]	< 1 µM

Now from value to molecule:

GI50	Structure (SMILES)
< 1 µM	CC(=O)Nc1ccc(-c2ccnc(Nc3ccc(N4CC5CCC(C4)N5C)cc3)n2)cc1 [compound 162, 4-(4-(acetamido)phenyl)-N-(4-(8-methyl-3,8-diazabicyclo[3.2.1]octan-3-yl)phenyl)pyrimidin-2-amine]
< 1 µM	CN1C[C@@H]2C[C@H]1CN2c1ccc(Nc2nccc(-c3ccc(NS(C)(=O)=O)cc3)n2)cc1F [compound 135, 4-(4-(methylsulfonylamino)phenyl)-N-(3-fluoro-4-((1S,4S)-5-methyl-2,5-diazabicyclo[2.2.1]heptan-2-yl)phenyl)pyrimidin-2-amine]
< 1 µM	CN(C)c1ccc(-c2ccnc(Nc3ccc(N4C[C@@H]5C[C@H]4CN5C)cc3)n2)cn1 [compound 183, 4-(6-(dimethylamino)pyridin-3-yl)-N-(4-((1S,4S)-5-methyl-2,5-diazabicyclo[2.2.1]heptan-2-yl)phenyl)pyrimidin-2-amine]
1 to 10 µM	CN1C[C@@H]2C[C@H]1CN2c1ccc(Nc2nccc(-c3ccc(NC(=O)CN4CCOCC4)nc3)n2)cc1F [compound 143, 4-(6-(2-(morpholin-4-yl)acetamido)pyridin-3-yl)-N-(3-fluoro-4-((1S,4S)-5-methyl-2,5-diazabicyclo[2.2.1]heptan-2-yl)phenyl)pyrimidin-2-amine]
1 to 10 µM	CN1C[C@@H]2C[C@H]1CN2c1ccc(Nc2nccc(-c3cnc(N4CCOCC4)cn3)n2)cc1F [compound 179, 4-(5-(morpholin-4-yl)pyrazin-2-yl)-N-(3-fluoro-4-((1S,4S)-5-methyl-2,5-diazabicyclo[2.2.1]heptan-2-yl)phenyl)pyrimidin-2-amine]
< 1 µM	CCOc1ccc(-c2ccnc(Nc3ccc(N4C[C@@H]5C[C@H]4CN5C)c(C)c3)n2)cn1 [compound 173, 4-(6-ethoxypyridin-3-yl)-N-(3-methyl-4-((1S,4S)-5-methyl-2,5-diazabicyclo[2.2.1]heptan-2-yl)phenyl)pyrimidin-2-amine]
< 1 µM	CN1C[C@@H]2C[C@H]1CN2c1ccc(Nc2nccc(-c3ccc(N4CCOCC4)nc3)n2)cc1C#N [compound 118, 4-(6-(morpholin-4-yl)pyridin-3-yl)-N-(3-cyano-4-((1S,4S)-5-methyl-2,5-diazabicyclo[2.2.1]heptan-2-yl)phenyl)pyrimidin-2-amine]

Same assay, conditions: inhibition of JAK2 activity, proliferation of Ba/F3 V617F cells, read-out: IC50 (the source's name)

GI50	Structure (SMILES)
< 1 µM	Cc1cc(Nc2nccc(-c3ccc(N)nc3)n2)cnc1N1C[C@@H]2C[C@H]1CN2C [compound 145, 4-(6-aminopyridin-3-yl)-N-(5-methyl-6-((1S,4S)-5-methyl-2,5-diazabicyclo[2.2.1]heptan-2-yl)pyridin-3-yl)pyrimidin-2-amine]
